Test results reported in ChEMBL document CHEMBL1201862, “PubChem BioAssay data set” (2004).
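Following 48 hours of exposure in 96-well plates, responses at five concentrations were used to interpolate endpoints linearly. Abbreviation: GI50, concentration required for 50% inhibition of growth.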 The source made the active and inactive calls. No stated cut-off is given here; in the data, active = GI50 up to about 1.1 µM and inactive = higher.

Experiments:
Assay in all cases: NCI anticancer screen, dose series, 48 h
Malme-3M = test system: Malme-3M
RPMI-8226 = test system: RPMI-8226
ACHN = test system: ACHN
LXFL 529 = test system: LXFL 529
HT-29 = test system: HT-29
HCT-15 = test system: HCT-15
786-0 = test system: 786-0
COLO 205 = test system: COLO 205
SNB-78 = test system: SNB-78
NCI-H23 = test system: NCI-H23
OVCAR-8 = test system: OVCAR-8
K562 = test system: K562
TK-10 = test system: TK-10
CAKI-1 = test system: CAKI-1
OVCAR-4 = test system: OVCAR-4
UACC-62 = test system: UACC-62
SF-539 = test system: SF-539
SK-MEL-28 = test system: SK-MEL-28
OVCAR-3 = test system: OVCAR-3
MOLT-4 = test system: MOLT-4
M14 = test system: M14
SNB-75 = test system: SNB-75
LOX IMVI = test system: LOX IMVI
SNB-19 = test system: SNB-19
IGROV-1 = test system: IGROV-1
HL-60 = test system: HL-60
HCC 2998 = test system: HCC 2998
UO-31 = test system: UO-31
EKVX = test system: EKVX
SW-620 = test system: SW-620
SK-MEL-2 = test system: SK-MEL-2
SF-295 = test system: SF-295
SK-MEL-5 = test system: SK-MEL-5
HOP-62 = test system: HOP-62
A498 = test system: A498
UACC-257 = test system: UACC-257
HOP-18 = test system: HOP-18
A549 = test system: A549
SN12C = test system: SN12C
HCT-116 = test system: HCT-116
RXF 393 = test system: RXF 393
SR = test system: SR
NCI-H522 = test system: NCI-H522
DLD-1 = test system: DLD-1
KM-20L2 = test system: KM-20L2
OVCAR-5 = test system: OVCAR-5
SF-268 = test system: SF-268
U-251 = test system: U-251
M19-MEL = test system: M19-MEL
NCI-H460 = test system: NCI-H460
CCRF-CEM = test system: CCRF-CEM
NCI-H226 = test system: NCI-H226
SK-OV-3 = test system: SK-OV-3
KM12 = test system: KM12
DMS-114 = test system: DMS-114
HOP-92 = test system: HOP-92
DMS-273 = test system: DMS-273
XF498 = test system: XF498

Q: `ClCCNCCNCCCl.ClCCNCCNCCCl.[O-][Cl+3]([O-])([O-])O` was tested. Which GI50 (Malme-3M) did it give?
A: Its GI50 is 19.5 µM (inactive).

Q: What about the GI50 (RPMI-8226) of the same compound?
A: Its GI50 is 33.3 µM (inactive).

Q: What about the GI50 (ACHN) of the same compound?
A: Its GI50 is 21.9 µM (inactive).

Q: And the GI50 (LXFL 529)?
A: The GI50 was 17.2 µM (inactive).

Q: And the GI50 (HT-29)?
A: The GI50 was > 100 µM (inactive).

Q: What about the GI50 (HCT-15) of the same compound?
A: The GI50 was 55.8 µM.

Q: What about the GI50 (786-0) of the same compound?
A: Its GI50 is 18.8 µM (inactive).

Q: And the GI50 (COLO 205)?
A: The GI50 was 40.7 µM (inactive).

Q: What about the GI50 (SNB-78) of the same compound?
A: Its GI50 is 44.6 µM (inactive).

Q: What about the GI50 (NCI-H23) of the same compound?
A: The GI50 was 27.9 µM (inactive).

Q: And the GI50 (OVCAR-8)?
A: The GI50 was 18.9 µM (inactive).

Q: What about the GI50 (K562) of the same compound?
A: The GI50 was 23.6 µM (inactive).

Q: What about the GI50 (TK-10) of the same compound?
A: Its GI50 is 49.9 µM (inactive).

Q: What about the GI50 (CAKI-1) of the same compound?
A: Its GI50 is 19.1 µM (inactive).

Q: What about the GI50 (OVCAR-4) of the same compound?
A: The GI50 was 22.3 µM (inactive).

Q: What about the GI50 (UACC-62) of the same compound?
A: Its GI50 is 26.9 µM (inactive).

Q: And the GI50 (SF-539)?
A: The GI50 was 26.2 µM (inactive).

Q: And the GI50 (SK-MEL-28)?
A: Its GI50 is 46.2 µM (inactive).

Q: And the GI50 (OVCAR-3)?
A: Its GI50 is 17.6 µM (inactive).

Q: And the GI50 (MOLT-4)?
A: Its GI50 is 31.4 µM (inactive).

Q: What about the GI50 (M14) of the same compound?
A: The GI50 was 19.5 µM (inactive).

Q: And the GI50 (SNB-75)?
A: Its GI50 is 19 µM (inactive).

Q: And the GI50 (LOX IMVI)?
A: The GI50 was 20 µM (inactive).

Q: What about the GI50 (SNB-19) of the same compound?
A: Its GI50 is > 100 µM (inactive).

Q: What about the GI50 (IGROV-1) of the same compound?
A: Its GI50 is 22.5 µM (inactive).

Q: What about the GI50 (HL-60) of the same compound?
A: Its GI50 is 30.3 µM (inactive).

Q: What about the GI50 (HCC 2998) of the same compound?
A: The GI50 was > 100 µM (inactive).

Q: What about the GI50 (UO-31) of the same compound?
A: Its GI50 is 26.8 µM (inactive).

Q: What about the GI50 (EKVX) of the same compound?
A: Its GI50 is > 100 µM (inactive).

Q: What about the GI50 (SW-620) of the same compound?
A: Its GI50 is 21 µM (inactive).

Q: What about the GI50 (SK-MEL-2) of the same compound?
A: The GI50 was 21.4 µM (inactive).

Q: What about the GI50 (SF-295) of the same compound?
A: The GI50 was 54.6 µM (inactive).

Q: What about the GI50 (SK-MEL-5) of the same compound?
A: The GI50 was 23 µM (inactive).

Q: What about the GI50 (HOP-62) of the same compound?
A: Its GI50 is > 100 µM (inactive).

Q: And the GI50 (A498)?
A: The GI50 was 57.1 µM (inactive).

Q: What about the GI50 (UACC-257) of the same compound?
A: Its GI50 is 27 µM (inactive).

Q: What about the GI50 (HOP-18) of the same compound?
A: Its GI50 is 24.3 µM (inactive).

Q: And the GI50 (A549)?
A: Its GI50 is 73.5 µM (inactive).

Q: What about the GI50 (SN12C) of the same compound?
A: Its GI50 is 61.2 µM (inactive).

Q: And the GI50 (HCT-116)?
A: Its GI50 is 27.5 µM (inactive).

Q: And the GI50 (RXF 393)?
A: Its GI50 is 40.7 µM (inactive).

Q: What about the GI50 (SR) of the same compound?
A: The GI50 was 23.1 µM (inactive).

Q: What about the GI50 (NCI-H522) of the same compound?
A: Its GI50 is 11.4 µM (inactive).

Q: And the GI50 (DLD-1)?
A: Its GI50 is 18.5 µM (inactive).

Q: What about the GI50 (KM-20L2) of the same compound?
A: The GI50 was 67.3 µM (inactive).

Q: What about the GI50 (OVCAR-5) of the same compound?
A: Its GI50 is 24.9 µM (inactive).

Q: And the GI50 (SF-268)?
A: The GI50 was 25.5 µM (inactive).

Q: What about the GI50 (U-251) of the same compound?
A: The GI50 was 25.4 µM (inactive).

Q: What about the GI50 (M19-MEL) of the same compound?
A: Its GI50 is 27.2 µM (inactive).

Q: And the GI50 (NCI-H460)?
A: Its GI50 is 22.3 µM (inactive).

Q: What about the GI50 (CCRF-CEM) of the same compound?
A: Its GI50 is 29.5 µM (inactive).

Q: And the GI50 (NCI-H226)?
A: The GI50 was > 100 µM (inactive).

Q: And the GI50 (SK-OV-3)?
A: Its GI50 is > 100 µM (inactive).

Q: And the GI50 (KM12)?
A: Its GI50 is > 100 µM (inactive).

Q: And the GI50 (DMS-114)?
A: Its GI50 is 23.9 µM (inactive).

Q: And the GI50 (HOP-92)?
A: Its GI50 is 39.7 µM (inactive).

Q: What about the GI50 (DMS-273) of the same compound?
A: The GI50 was 27.5 µM (inactive).

Q: What does the source list for `O=C1CCc2ccc(O)c(c2)Oc2ccc(cc2)[C@@H]2O[C@@H]2CO1`?
A: GI50 (Malme-3M): 22.2 µM (inactive); GI50 (RPMI-8226): 28.9 µM (inactive); GI50 (ACHN): 61.8 µM (inactive); GI50 (LXFL 529): 33.2 µM (inactive); GI50 (HT-29): 89.3 µM (inactive); GI50 (786-0): > 100 µM (inactive); GI50 (COLO 205): 98.9 µM (inactive); GI50 (NCI-H23): 38.4 µM (inactive); GI50 (OVCAR-8): 75.5 µM (inactive); GI50 (XF498): 5.26 µM (inactive); GI50 (K562): 24.6 µM (inactive); GI50 (TK-10): 73.5 µM (inactive); GI50 (CAKI-1): 29.6 µM (inactive); GI50 (OVCAR-4): 41 µM (inactive); GI50 (UACC-62): 30.5 µM (inactive); GI50 (SF-539): 70.6 µM (inactive); GI50 (SK-MEL-28): 49.2 µM (inactive); GI50 (OVCAR-3): 32.8 µM (inactive); GI50 (MOLT-4): 23.9 µM (inactive); GI50 (M14): 41.6 µM (inactive); GI50 (SNB-75): 37.9 µM (inactive); GI50 (LOX IMVI): 40.8 µM (inactive); GI50 (SNB-19): 82.6 µM (inactive); GI50 (IGROV-1): 17.8 µM (inactive); GI50 (HL-60): 37.9 µM (inactive); GI50 (HCC 2998): > 100 µM (inactive); GI50 (UO-31): 23.8 µM (inactive); GI50 (EKVX): 59.8 µM (inactive); GI50 (SW-620): 53.6 µM (inactive); GI50 (SK-MEL-2): 34 µM (inactive); GI50 (SF-295): 56.1 µM (inactive); GI50 (SK-MEL-5): 23.6 µM (inactive); GI50 (HOP-62): > 100 µM (inactive); GI50 (A498): 29 µM (inactive); GI50 (UACC-257): 48.4 µM (inactive); GI50 (HOP-18): 25.6 µM (inactive); GI50 (A549): 56.8 µM (inactive); GI50 (SN12C): 62.4 µM (inactive); GI50 (HCT-116): 48.2 µM (inactive); GI50 (SR): 30.1 µM (inactive); GI50 (DLD-1): 55.8 µM (inactive); GI50 (KM-20L2): 88.5 µM (inactive); GI50 (OVCAR-5): 54.2 µM (inactive); GI50 (SF-268): > 10 µM (inactive); GI50 (U-251): 67.8 µM (inactive); GI50 (M19-MEL): 38.1 µM (inactive); GI50 (CCRF-CEM): 76 µM (inactive); GI50 (NCI-H226): 40.5 µM (inactive); GI50 (SK-OV-3): 27 µM (inactive); GI50 (KM12): 72.8 µM (inactive); GI50 (DMS-114): 20 µM (inactive); GI50 (HOP-92): 23.7 µM (inactive)
